In test [1] the target is T1, human ETA receptor (Homo sapiens, UniProt P25101).
T1 construct: expressed in transfected cells; host or cells: CHO cells
T1 sequence (P25101 21-427): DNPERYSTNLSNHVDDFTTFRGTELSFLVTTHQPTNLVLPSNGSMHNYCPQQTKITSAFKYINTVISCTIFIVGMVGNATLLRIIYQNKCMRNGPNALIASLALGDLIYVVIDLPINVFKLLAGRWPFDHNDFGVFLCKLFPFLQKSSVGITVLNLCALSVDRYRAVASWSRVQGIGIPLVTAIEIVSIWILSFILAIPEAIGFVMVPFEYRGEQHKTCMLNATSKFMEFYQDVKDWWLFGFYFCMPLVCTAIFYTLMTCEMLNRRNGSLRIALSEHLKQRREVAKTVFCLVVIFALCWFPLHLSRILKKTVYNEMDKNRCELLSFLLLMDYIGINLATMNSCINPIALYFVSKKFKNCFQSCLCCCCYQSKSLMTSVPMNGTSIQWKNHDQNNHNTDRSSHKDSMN
Description: ETA receptor binding test ([125J]-ET1, CHO cell membranes). The settings on record: cloned human ETA receptor-expressing CHO cell membranes, 25 pM [125J]-ET1, 25° C., 30 min. The method, then:
(§1) For binding studies, cloned human ETA or ETB receptor-expressing CHO cells were employed.
(§2) The ETA or ETB receptor-expressing CHO cells were proliferated in DMEM NUT MIX F12 medium (Gibco, No. 21331-020) using 10% fetal calf serum (PAA Laboratories GmbH, Linz, No. A15-022), 1 mM glutamine (Gibco No. 25030-024), 100 U/ml of penicillin and 100 μg/ml of streptomycin (Gibco, Sigma No P-0781). After 48 hours, the cells were washed with PBS and incubated at 37° C. for 5 minutes with 0.05% trypsin-containing PBS. Neutralization was then carried out with medium and the cells were collected by centrifugation at 300×g.
(§3) For membrane preparation, the cells were adjusted to a concentration of 10^8 cells/ml of buffer (50 mM tris-HCl buff r, pH 7.4) and then disintegrated by ultrasound (Branson Sonifier 250, 40-70 seconds/constant/output 20).
(§4) For the ETA and ETB receptor binding test, the membranes were suspended in incubation buffer (50 mM tris HCl, pH 7.4 with 5 mM MnCl2, 40 mg/ml of bacitracin and 0.2% of BSA) in a concentration of 50 μg of protein per test batch and incubated at 25° C. with 25 pM of [125J]-ET1 (ETA receptor test) or 25 pM of [125I)-ET3 (ETB receptor test) in the presence and absence of test substance. The nonspecific binding was determined using 10^−7 M ET1. After 30 min, the free and the bound radioligand was separated by filtration through GF/B glass fiber filters (Whatman, England) on a Skatron cell collector (Skatron, Lier, Norway) and the filters were washed with ice-cold tris HCl buffer, pH 7.4 with 0.2% of BSA. The radioactivity collected on the filters was quantified using a Packard 2200 CA liquid scintillation counter.

In test [2] the target is T2, human ETB receptor (Homo sapiens, UniProt P24530).
T2 construct: expressed in transfected cells; host or cells: CHO cells
T2 sequence (P24530 27-442): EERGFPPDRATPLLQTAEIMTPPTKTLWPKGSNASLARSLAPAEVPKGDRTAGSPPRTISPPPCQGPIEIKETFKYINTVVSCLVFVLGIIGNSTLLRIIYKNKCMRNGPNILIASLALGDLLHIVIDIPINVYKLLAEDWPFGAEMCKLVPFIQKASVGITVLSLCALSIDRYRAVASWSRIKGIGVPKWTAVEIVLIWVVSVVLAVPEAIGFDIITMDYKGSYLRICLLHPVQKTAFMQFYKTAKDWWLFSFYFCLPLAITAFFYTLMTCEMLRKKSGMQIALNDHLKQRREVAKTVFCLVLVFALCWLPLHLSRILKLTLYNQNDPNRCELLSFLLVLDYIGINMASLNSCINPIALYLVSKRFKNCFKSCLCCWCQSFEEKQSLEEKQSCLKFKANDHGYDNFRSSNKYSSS
As to the kind of experiment: ETB receptor binding test ([125I]-ET3, CHO cell membranes). The settings on record: cloned human ETB receptor-expressing CHO cell membranes, 25 pM [125I]-ET3, 25° C., 30 min. The protocol:
as §1, §2, §3, §4

Bounds are passed on as bounds.

As a reminder, the Ki is a measure of affinity in units of concentration, obtained from inhibition or displacement. A low value points to tighter binding. For the molecule `COc1cc(OC)nc(OC(C(=O)O)C(NC(=O)N(C)C)(c2ccccc2)c2ccccc2)n1` (stereo not drawn) [Compound I-11, 2-[(4,6-Dimethoxy-2-pyrimidinyl)oxy]-N-[(dimethylamino)carbonyl]-3,3-diphenyl-β-alanine], the results for the inhibition constant Ki in test [1] and in test [2] were 397 nM and greater than 10000 nM, respectively.

In the case of `COc1ccc(CN(C)C(=O)NC(c2ccccc2)(c2ccccc2)C(Oc2nc(OC)cc(OC)n2)C(=O)O)cc1` (stereo not drawn) [Compound I-23, 2-[(4,6-Dimethoxy-2-pyrimidinyl)oxy]-N-{[(4-methoxybenzyl)-(methyl)amino]carbonyl}-3,3-diphenyl-β-alanine], the Ki in test [1] worked out at 147 nM; in test [2], 6620 nM.

`Cc1cc(C)nc(OC(C(=O)O)C(NC(=O)N2CCCC2)(c2ccccc2)c2ccccc2)n1` (stereo not drawn) [Compound I-26, 2-[(4,6-Dimethyl-2-pyrimidinyl)oxy]-3,3-diphenyl-N-(1-pyrrolidinylcarbonyl)-β-alanine]: the Ki was 53 nM in test [1] and 3850 nM in test [2].

In the case of `Cc1cc(C)nc(OC(C(=O)O)C(NC(=O)N2CCCCC2)(c2ccccc2)c2ccccc2)n1` (stereo not drawn) [Compound I-52, 2-[(4,6-Dimethyl-2-pyrimidinyl)oxy]-3,3-diphenyl-N-(1-piperidinylcarbonyl)-β-alanine], the Ki is 73 nM in test [1] and 4220 nM in test [2].

As to `Cc1cc(C)nc(OC(C(=O)O)C(NC(=O)N2CCOCC2)(c2ccccc2)c2ccccc2)n1` (stereo not drawn) [Compound I-75, 2-[(4,6-Dimethyl-2-pyrimidinyl)oxy]-N-(4-morpholinylcarbonyl)-3,3-diphenyl-β-alanine], the Ki came to 117 nM in test [1] and 3450 nM in test [2].

As to `CCN(CC)C(=O)NC(c1ccccc1)(c1ccccc1)C(Oc1nc(OC)cc(OC)n1)C(=O)O` (stereo not drawn) [Compound I-86, N-[(Diethylamino)carbonyl]-2-[(4,6-dimethoxy-2-pyrimidinyl)oxy]-3,3-diphenyl-β-alanine], the figures for the Ki in test [1] and in test [2] were 253 nM and greater than 10000 nM, respectively.

Take `COc1ccc(N(C)C(=O)NC(c2ccccc2)(c2ccccc2)C(Oc2nc(OC)cc(OC)n2)C(=O)O)cc1` (stereo not drawn) [Compound I-121, 2-[(4,6-Dimethoxy-2-pyrimidinyl)oxy]-N-{[4-methoxy(methyl)-anilino]carbonyl}-3,3-diphenyl-β-alanine]: the Ki in test [1] is 310 nM; in test [2], no less than 10000 nM.

Turning to `COc1cc(OC)nc(OC(C(=O)O)C(NC(=O)OCc2ccccc2)(c2ccccc2)c2ccccc2)n1` (stereo not drawn) [Compound I-140, N-[(Benzyloxy)carbonyl]-2-[(4,6-dimethoxy-2-pyrimidinyl)oxy]-3,3-diphenyl-β-alanine], the Ki worked out at 97 nM in test [1] and 2340 nM in test [2].

For `COc1cc(OC)nc(OC(C(=O)O)C(NC(=O)N(C)c2ccccc2)(c2ccccc2)c2ccccc2)n1` (stereo not drawn) [Compound I-155, 2-[(4,6-Dimethoxy-2-pyrimidinyl)oxy]-N-[(methylanilino)carbonyl]-3,3-diphenyl-β-alanine], the Ki in test [1] came to 265 nM; in test [2] it was 5770 nM.

Turning to `COc1cc(OC)nc(OC(C(=O)O)C(NC(=O)Oc2ccc(C)c(C)c2)(c2ccccc2)c2ccccc2)n1` (stereo not drawn) [Compound I-168, 2-[(4,6-Dimethoxy-2-pyrimidinyl)oxy]-N-[(3,4-dimethylphenoxy)-carbonyl]-3,3-diphenyl-β-alanine], the Ki in test [1] worked out at 105 nM; in test [2] it was 730 nM.

On to `COc1ccc(OC(=O)NC(c2ccccc2)(c2ccccc2)C(Oc2nc(OC)cc(OC)n2)C(=O)O)cc1` (stereo not drawn) [Compound I-170, 2-[(4,6-Dimethoxy-2-pyrimidinyl)oxy]-N-[(4-methoxyphenoxy)-carbonyl]-3,3-diphenyl-β-alanine], for which the Ki in test [1] amounted to 120 nM; in test [2], 1930 nM.

Take `COc1ccc(CN(C)C(=O)NC(c2ccccc2)(c2ccccc2)C(Oc2nc(C)cc(C)n2)C(=O)O)cc1` (stereo not drawn) [Compound I-194, 2-[(4,6-Dirnethyl-2-pyrimidinyl)oxy]-N-{[(4-methoxybenzyl)-(methyl)amino]carbonyl}-3,3-diphenyl-β-alanine]: the Ki in test [1] is 14 nM; in test [2], 2330 nM.

Regarding `Cc1cc(C)nc(OC(C(=O)O)C(NC(=O)N(C)C2CCCCC2)(c2ccccc2)c2ccccc2)n1` (stereo not drawn) [Compound I-202, N-{[Cyclohexyl(methyl)amino]carbonyl}-2-[(4,6-dimethyl-2-pyrimidinyl)oxy]-3,3-diphenyl-β-alanine], the inhibitory constant (Ki) in test [1] came out at 19 nM; in test [2], 195 nM.

Turning to `COC(=O)NC(c1ccccc1)(c1ccccc1)C(Oc1nc(OC)cc(OC)n1)C(=O)O` (stereo not drawn) [Compound I-230, 2-[(4,6-Dimethoxy-2-pyrimidinyl)oxy]-N-(methoxycarbonyl)-3,3-diphenyl-β-alanine], the Ki in test [1] is 89 nM; in test [2], greater than 10000 nM.

In the case of `COc1cc(OC)nc(OC(C(=O)O)C(NC(=O)N(C)Cc2ccccc2)(c2ccccc2)c2ccccc2)n1` (stereo not drawn) [Compound I-260, N-{[Benzyl(methyl)amino]carbonyl}-2-[(4,6-dimethoxy-2-pyrimidinyl)oxy]-3,3-diphenyl-β-alanine], the Ki stood at 235 nM in test [1] and 2440 nM in test [2].

`COc1cc(OC)nc(OC(C(=O)O)C(NC(=O)OCc2cc(OC)c(OC)cc2[N+](=O)[O-])(c2ccccc2)c2ccccc2)n1` (stereo not drawn) [Compound I-266, N-{[(4,5-Dimethoxy-2-nitrobenzyl)oxy]carbonyl}-2-((4,6-dimethoxy-2-pyrimidinyl)oxy]-3,3-diphenyl-β-alanine]: the Ki in test [1] worked out at 13 nM; in test [2], 1090 nM.

(Values after patent US20040034076A1, “Novel carbamates and carbamides, production and use thereof as endothelin receptor antagonists” (priority 2000, published 2004).)
